In one series the target is T1, α1G (CaV 3.1) (Homo sapiens, UniProt O43497).
T1 construct: expressed in transfected cells; host or cells: HEK 293
In words: T-type calcium channel block, whole cell patch clamp. The class given is cell-based. The following applies: HEK cells, mainly non-inactivated protocol; values above 10,000 nM represented as 10000. In a few lines:
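HEK293 cells stably expressing human T-type channels, whole-cell patch clamp; compounds in external solution with 0.1-0.01% DMSO, applied by gravity. Mainly non-inactivating protocol: holding −110 mV, 1 s pre-pulse −100 mV, 50 ms test pulse −40 mV (inactivated protocol uses ~−85 mV pre-pulse); IC50 reported.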
On the technique in general: The patch-clamp technique gives a direct electrical read-out from membranes.

The target of a further series is hERG K+ channel (Homo sapiens, UniProt Q12809). In words: hERG activity. An excerpt:
(§1) In addition to being able to modulate a particular calcium channel (e.g., CaV 3.1, CaV 3.2, or CaV 3.3), it may be desirable that the compound has very low activity with respect to the hERG K^+ channel, which is expressed in the heart: compounds that block this channel with high potency may cause reactions which are fatal. See, e.g., Bowlby et al., “hERG (KCNH2 or KV11.1 K^+ Channels: Screening for Cardiac Arrhythmia Risk,” Curr. Drug Metab. 9(9):965-70 (2008)). […] Such compounds may be particularly useful in the methods described herein.

A further series addresses CYP2C9 (Homo sapiens, UniProt P11712). Put plainly: cytochrome inhibition. The class given is in vitro ADME. The following applies: read-out: inhibition of cytochrome 2C9.
Description: as §1

The target of a further series is CYP3A4 (Homo sapiens, UniProt P08684). In words: cytochrome inhibition. The class given is in vitro ADME. The following applies: read-out: inhibition of cytochrome 3A4.
CYP3A4, sequence (P08684 whole entry): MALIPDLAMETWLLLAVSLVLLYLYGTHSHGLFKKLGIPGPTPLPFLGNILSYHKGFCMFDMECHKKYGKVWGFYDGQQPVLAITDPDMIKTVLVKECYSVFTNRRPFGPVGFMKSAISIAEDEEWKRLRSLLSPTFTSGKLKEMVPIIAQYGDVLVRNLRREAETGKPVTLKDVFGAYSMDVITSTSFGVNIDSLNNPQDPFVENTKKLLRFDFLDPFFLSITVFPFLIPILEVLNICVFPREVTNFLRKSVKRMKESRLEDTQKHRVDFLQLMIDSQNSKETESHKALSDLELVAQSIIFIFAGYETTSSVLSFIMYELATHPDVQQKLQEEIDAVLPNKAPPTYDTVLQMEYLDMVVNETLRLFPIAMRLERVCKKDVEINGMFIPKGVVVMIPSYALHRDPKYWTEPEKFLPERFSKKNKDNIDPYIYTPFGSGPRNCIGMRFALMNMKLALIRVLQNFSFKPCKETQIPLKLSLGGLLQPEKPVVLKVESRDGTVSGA
Description: as §1

The next series deals with CYP2D6 (Homo sapiens, UniProt P10635). In words: cytochrome inhibition. In kind it is in vitro ADME. As to conditions: read-out: inhibition of cytochrome 2D6.
CYP2D6, sequence (P10635 whole entry): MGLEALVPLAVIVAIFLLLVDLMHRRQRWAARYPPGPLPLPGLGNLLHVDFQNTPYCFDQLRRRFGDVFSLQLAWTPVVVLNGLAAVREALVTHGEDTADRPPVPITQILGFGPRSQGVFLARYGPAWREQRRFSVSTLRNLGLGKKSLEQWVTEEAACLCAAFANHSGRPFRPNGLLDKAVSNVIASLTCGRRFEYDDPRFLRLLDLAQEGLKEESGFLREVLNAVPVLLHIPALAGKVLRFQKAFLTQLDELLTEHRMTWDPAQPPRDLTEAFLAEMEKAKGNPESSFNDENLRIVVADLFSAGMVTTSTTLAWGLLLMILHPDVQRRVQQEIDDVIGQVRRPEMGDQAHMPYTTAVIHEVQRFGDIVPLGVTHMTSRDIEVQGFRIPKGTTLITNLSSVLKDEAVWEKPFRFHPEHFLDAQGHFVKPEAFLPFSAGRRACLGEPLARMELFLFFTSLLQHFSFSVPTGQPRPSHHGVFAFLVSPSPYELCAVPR
Series [1] deals with Lamina I/II spinal cord neurons. Put plainly: Lamina assay, current-clamp recordings in spinal cord slices. The class given is cell-based, rat. The following applies: Lamina I and II neurons. An excerpt: Male Wistar rats (P6 to P9 for voltage-clamp and P15 to P18 for current-clamp recordings) were anaesthetized through intraperitoneal injection of Inactin (Sigma). The spinal cord was then rapidly dissected out and placed in an ice-cold solution protective sucrose solution containing (in mM): 50 sucrose, 92 NaCl, 15 D-Glucose, 26 NaHCO3, 5 KCl, 1.25 NaH2PO4, 0.5 CaCl2, 7 MgSO4, 1 kynurenic acid, and bubbled with 5% CO2/95% O2. The meninges, dura, and dorsal and ventral roots were then removed from the lumbar region of the spinal cord under a dissecting microscope. The “cleaned” lumbar region of the spinal cord was glued to the vibratome stage and immediately immersed in ice cold, bubbled, sucrose solution. For current-clamp recordings, 300 to 350 μm parasagittal slices were cut to preserve the dendritic arbour of lamina I neurons, while 350 to 400 μm transverse slices were prepared for voltage-clamped […] channel recordings. Slices were allowed to recover for 1 hour at 35° C. in Ringer solution containing (in mM): 125 NaCl, 20 D-Glucose, 26 NaHCO3, 3 KCl, 1.25 NaH2PO4, 2 CaCl2, 1 MgCl2, 1 kynurenic acid, 0.1 picrotoxin, bubbled with 5% CO2/95% O2. The slice recovery chamber was then returned to room temperature (20 to 22° C.) and all recordings were performed at this temperature.
Neurons were visualized using IR-DIC optics (Zeiss Axioskop 2 FS plus, Gottingen, Germany), and neurons from lamina I and the outer layer of lamina II were selected based on their location relative to the substantia gelatinosa layer. Neurons were patch-clamped using borosilicate glass patch pipettes with resistances of […] Current-clamp recordings of lamina I/II neurons in the intact slice, the external recording solution was the above Ringer solution, while the internal patch pipette solution contained (in mM): 140 KGluconate, 4 NaCl, 10 HEPES, 1 EGTA, 0.5 MgCl2, 4 MgATP, 0.5 Na2GTP, adjusted to pH 7.2 with 5 M KOH and to 290 mOsm with D-Mannitol (if necessary). […]

CYP2C9, sequence (P11712 whole entry): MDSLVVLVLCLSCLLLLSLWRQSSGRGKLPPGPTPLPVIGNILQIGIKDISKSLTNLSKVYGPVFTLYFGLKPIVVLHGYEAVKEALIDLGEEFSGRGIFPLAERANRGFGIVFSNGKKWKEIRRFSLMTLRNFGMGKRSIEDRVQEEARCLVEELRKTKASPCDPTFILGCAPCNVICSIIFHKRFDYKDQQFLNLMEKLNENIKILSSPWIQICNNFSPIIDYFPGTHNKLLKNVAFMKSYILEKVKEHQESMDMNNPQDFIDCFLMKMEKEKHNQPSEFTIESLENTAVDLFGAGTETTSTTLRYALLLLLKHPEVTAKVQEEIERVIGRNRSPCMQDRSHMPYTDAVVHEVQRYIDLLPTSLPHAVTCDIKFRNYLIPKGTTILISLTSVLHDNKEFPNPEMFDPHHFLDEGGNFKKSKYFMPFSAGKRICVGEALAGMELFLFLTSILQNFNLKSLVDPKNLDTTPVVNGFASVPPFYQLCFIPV
T1 sequence (O43497 whole entry): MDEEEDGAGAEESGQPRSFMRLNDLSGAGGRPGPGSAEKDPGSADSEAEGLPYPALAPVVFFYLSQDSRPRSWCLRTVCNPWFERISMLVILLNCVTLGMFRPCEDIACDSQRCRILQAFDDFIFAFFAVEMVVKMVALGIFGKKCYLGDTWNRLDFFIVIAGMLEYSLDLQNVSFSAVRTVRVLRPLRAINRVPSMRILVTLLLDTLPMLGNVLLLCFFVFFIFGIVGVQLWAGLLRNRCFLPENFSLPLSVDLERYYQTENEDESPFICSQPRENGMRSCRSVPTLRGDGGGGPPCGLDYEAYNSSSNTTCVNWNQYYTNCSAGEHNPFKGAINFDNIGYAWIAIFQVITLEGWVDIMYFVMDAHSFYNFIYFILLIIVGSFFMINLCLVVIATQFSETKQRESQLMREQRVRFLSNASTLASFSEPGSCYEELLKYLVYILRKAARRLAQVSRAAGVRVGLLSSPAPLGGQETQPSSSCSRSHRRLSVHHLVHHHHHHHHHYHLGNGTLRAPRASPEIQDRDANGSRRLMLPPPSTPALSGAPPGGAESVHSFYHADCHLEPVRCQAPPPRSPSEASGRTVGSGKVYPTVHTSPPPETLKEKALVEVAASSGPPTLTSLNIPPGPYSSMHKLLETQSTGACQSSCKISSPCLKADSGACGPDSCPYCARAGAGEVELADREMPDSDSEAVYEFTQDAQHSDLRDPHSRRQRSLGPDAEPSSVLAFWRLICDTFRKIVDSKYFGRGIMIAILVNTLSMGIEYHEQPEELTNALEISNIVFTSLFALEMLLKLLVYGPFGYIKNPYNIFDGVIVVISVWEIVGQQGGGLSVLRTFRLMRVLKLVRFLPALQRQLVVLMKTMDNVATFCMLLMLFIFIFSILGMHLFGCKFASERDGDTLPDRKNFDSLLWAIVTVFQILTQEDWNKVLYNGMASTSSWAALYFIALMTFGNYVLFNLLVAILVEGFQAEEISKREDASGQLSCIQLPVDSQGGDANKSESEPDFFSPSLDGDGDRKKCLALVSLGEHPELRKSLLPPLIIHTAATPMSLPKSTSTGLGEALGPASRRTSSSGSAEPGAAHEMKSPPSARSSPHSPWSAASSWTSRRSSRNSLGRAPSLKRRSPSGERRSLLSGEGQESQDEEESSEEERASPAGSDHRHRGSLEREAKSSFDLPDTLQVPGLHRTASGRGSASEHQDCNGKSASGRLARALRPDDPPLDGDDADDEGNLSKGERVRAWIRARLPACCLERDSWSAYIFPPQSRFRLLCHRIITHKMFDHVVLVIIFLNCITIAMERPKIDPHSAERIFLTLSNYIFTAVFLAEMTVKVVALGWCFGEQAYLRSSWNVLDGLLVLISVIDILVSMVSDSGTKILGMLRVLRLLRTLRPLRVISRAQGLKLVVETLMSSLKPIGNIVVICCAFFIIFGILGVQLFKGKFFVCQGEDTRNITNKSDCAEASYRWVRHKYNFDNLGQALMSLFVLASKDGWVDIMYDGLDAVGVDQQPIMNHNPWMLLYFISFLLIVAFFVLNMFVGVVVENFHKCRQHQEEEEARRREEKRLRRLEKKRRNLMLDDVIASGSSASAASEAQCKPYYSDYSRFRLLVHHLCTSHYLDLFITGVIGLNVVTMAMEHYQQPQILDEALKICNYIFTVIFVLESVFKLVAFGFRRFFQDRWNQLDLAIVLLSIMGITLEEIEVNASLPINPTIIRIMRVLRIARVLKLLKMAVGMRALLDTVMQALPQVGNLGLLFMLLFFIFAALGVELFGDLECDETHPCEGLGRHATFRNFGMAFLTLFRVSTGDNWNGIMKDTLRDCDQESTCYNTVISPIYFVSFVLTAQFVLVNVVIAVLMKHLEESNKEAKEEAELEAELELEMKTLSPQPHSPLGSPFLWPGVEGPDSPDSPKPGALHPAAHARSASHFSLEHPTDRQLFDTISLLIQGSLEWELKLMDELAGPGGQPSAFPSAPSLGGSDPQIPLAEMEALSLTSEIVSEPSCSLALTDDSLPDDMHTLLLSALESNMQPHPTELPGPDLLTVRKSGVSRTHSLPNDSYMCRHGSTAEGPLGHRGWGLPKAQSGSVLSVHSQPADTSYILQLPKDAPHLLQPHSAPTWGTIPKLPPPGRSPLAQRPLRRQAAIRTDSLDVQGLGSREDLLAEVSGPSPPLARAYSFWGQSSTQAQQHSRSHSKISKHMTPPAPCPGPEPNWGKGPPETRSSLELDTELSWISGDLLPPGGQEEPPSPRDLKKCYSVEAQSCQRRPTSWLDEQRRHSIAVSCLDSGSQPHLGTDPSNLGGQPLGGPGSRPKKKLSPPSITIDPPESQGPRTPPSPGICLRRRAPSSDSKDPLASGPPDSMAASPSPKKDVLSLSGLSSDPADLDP
hERG K+ channel, sequence (Q12809 whole entry): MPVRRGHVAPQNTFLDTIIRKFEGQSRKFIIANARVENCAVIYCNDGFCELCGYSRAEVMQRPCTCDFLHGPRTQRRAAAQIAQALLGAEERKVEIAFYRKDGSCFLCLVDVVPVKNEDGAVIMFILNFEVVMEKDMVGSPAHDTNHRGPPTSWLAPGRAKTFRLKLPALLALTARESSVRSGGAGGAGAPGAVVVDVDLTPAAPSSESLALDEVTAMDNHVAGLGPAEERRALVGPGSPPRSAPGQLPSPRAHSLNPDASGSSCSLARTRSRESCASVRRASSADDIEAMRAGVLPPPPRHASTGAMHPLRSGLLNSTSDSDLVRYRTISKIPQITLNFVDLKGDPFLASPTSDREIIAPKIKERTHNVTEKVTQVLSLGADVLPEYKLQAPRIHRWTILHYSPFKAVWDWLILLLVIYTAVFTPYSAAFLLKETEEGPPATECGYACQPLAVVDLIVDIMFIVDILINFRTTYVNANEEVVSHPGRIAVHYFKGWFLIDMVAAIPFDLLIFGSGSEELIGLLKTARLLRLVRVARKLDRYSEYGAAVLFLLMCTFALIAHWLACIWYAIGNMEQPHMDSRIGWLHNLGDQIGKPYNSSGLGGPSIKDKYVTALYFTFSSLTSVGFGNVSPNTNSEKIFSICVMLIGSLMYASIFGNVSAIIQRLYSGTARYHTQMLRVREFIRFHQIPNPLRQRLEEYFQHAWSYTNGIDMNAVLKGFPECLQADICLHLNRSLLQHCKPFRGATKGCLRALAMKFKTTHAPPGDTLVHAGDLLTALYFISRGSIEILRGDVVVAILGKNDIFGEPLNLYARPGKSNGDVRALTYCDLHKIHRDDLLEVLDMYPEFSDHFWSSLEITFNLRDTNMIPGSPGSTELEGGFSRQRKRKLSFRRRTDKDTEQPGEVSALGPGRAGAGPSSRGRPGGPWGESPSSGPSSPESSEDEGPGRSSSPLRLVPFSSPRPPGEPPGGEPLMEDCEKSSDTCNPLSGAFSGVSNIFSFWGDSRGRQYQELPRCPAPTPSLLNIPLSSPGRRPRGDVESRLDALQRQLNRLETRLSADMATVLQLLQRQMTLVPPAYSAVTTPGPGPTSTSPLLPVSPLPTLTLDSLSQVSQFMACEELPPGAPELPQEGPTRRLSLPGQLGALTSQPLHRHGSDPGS

What is called IC50 is the concentration that gives 50% inhibition. By inhibition is commonly meant the relative decrease from the control value, in per cent. Turning to `N[C@@H]1CCCC[C@H]1C(=O)N1CCC(CC(=O)Nc2cc(C(F)(F)F)cc(C(F)(F)F)c2)CC1` (racemic) [Compound 3, trans-2-(1-(2-aminocyclohexanecarbonyl)piperidin-4-yl)-N-(3,5-bis(trifluoromethyl)phenyl)acetamide], at α1G (CaV 3.1), the IC50 is above 10 µM. The hERG activity result at hERG K+ channel is recorded as “negligible”. Further, the inhibition at 10 micromolar on CYP2C9, on CYP3A4 and on CYP2D6 was below 10% throughout. For the same molecule, the “% Spike Change Mean” value in series [1] is given as −51.1%.
Consider “N-(3,5- bis(trifluoromethyl) phenyl)-2-(1- (piperidine-3- carbonyl)piperidin-4- yl)acetamide [Compound 2]”, for which, in series [1], the “% Spike Change Mean” value is listed as −57.2%.

The values are drawn from patent US20120220564A1, “SELECTIVE CALCIUM CHANNEL MODULATORS” (Zalicus Pharmaceuticals Ltd., priority 2009, published 2012).
